Literature values in US20100241197A1, “METHODS OF USING NITROXIDES IN CONJUNCTION WITH PHOTOSENSITIZERS AND SONOSENSITIZERS” (Mitos Pharmaceuticals, Inc., priority 2003, published 2010).
Where two headings read alike, the source gives them in different places. Each block holds one compound with its values, some of them ahead of it.

How the values were obtained:
[1] = not given; remark: listed apart in the source
tumor = details: in vivo
[2] = relative to PHOTOFRIN

Compound: C=Cc1c(C)c2cc3nc(c(CC(=O)N[C@@H](CC(=O)[O-])C(=O)[O-])c4[nH]c(cc5nc(cc1[nH]2)C(C)=C5CC)c(C)c4C(=O)[O-])[C@@H](CCC(=O)[O-])[C@@H]3C.[Na+].[Na+].[Na+].[Na+] [Npe6, Mono-L-aspartyl chlorin e6]
- extinction coefficient (absorbance peak at 654 nm): 40 000 M-1 cm-1
- solubility in water / aqueous solutions [1]: highly water soluble

- extinction coefficient (absorbance peak at 650 nm): 34 000 M-1 cm-1
- tumor accumulation (tumor): rapid tumor accumulation
Compound: benzoporphyrin derivative mono-acid A [BPD]

- skin photosensitivity compared with PHOTOFRIN [2]: only slightly less
Compound: Oc1cccc(-c2c3nc(c(-c4cccc(O)c4)c4ccc([nH]4)c(-c4cccc(O)c4)c4nc(c(-c5cccc(O)c5)c5ccc2[nH]5)CC4)C=C3)c1 [m-THPC, Meta-tetra hydroxyphenyl chlorin]

- extinction coefficient (at 700 nm): 40 000 M-1 cm-1
Compound: CCOC(=O)C1=Cc2c3nc(cc4nc(cc5[n-]c(cc6[n-]c2c(C)c6CC)c(C)c5CC)C(C)=C4CC)[C@@H](C)[C@]13CC.[Cl-].[Cl-].[Sn] (racemic) [SnET2, tin etiopurpurin]
